Legend:
[1] = system: series of cancer cell lines; experiment: In-gel fluorescence labeling profile in a series of cancer cell lines; assay type: cell-based
Protocol: Cells were seeded at a density of 200,000 cells per well in media [2 mL, RPMI (A431, H460, HeLa, Bx-PC3, MDA-MB-231) or DMEM (U251) supplemented with 5% heat-inactivated human serum (Sigma), penicillin (100 units/mL), and streptomycin (0.1 mg/mL)] in 6-well plates. Cells were incubated at 37° C. under ambient atmosphere with 5% CO2. After 24 h, the media was aspirated and replaced with fresh media [1 mL, RPMI (A431, H460, HeLa, Bx-PC3, MDA-MB-231) or DMEM (U251) supplemented with 5% heat-inactivated human serum, penicillin (100 units/mL), and streptomycin (0.1 mg/mL)] containing enamine N-oxide probe (200 mM in ethanol; 10 μM final concentration). Plates were then incubated at 37° C. under ambient (20% pO2) or various oxygenated conditions (5%, 1%, or 0.1% pO2) with 5% CO2. […] The protein concentration was determined by BCA assay following the manufacturer's protocol (Pierce). […] The dried pellet was then resuspended in an SDS solution (50 μL, 1% SDS in 50 mM Tris, pH 8.0), and the protein concentration was determined by BCA assay. […] In-gel fluorescence was visualized by a laser scanner (Typhoon™ FLA 9500, GE) and quantified using ImageJ software. […] Detection was mediated by an anti-rabbit IR680-dye conjugated secondary antibody (LI-COR Biosciences, 925-68071) and imaged using a fluorescence scanner (Odyssey CLx, LI-COR Biosciences).

[2] = system: BxPC-3 xenograft mouse model; experiment: Near infrared imaging in live mice; assay type: in vivo; settings: intraperitoneal 20 mg/kg
Protocol: All animal experiments were performed according to procedures and protocols approved by the Dana-Farber Cancer Institute Institutional Animal Care and Use Committee. Bx-PC3 cells were grown to confluency in antibiotic-free RPMI supplemented with 10% FBS, trypsinized, and washed three times with ice cold PBS (50 mL). Cells were resuspended in PBS at a concentration of 1.0×10^7 cells per 100 μL. 8-week old, female, homozygous NU/J mice (Jackson Laboratory) were subcutaneously injected with 1.0×10^7 Bx-PC3 cells over the right hind flank under isoflurane anesthesia. Experiments were performed when tumors reached 1000 mm^3 in size. Mice were intraperitoneally injected with a solution of Si700-enamine N-oxide probe 42 (20 mg/kg, 7.93 mM in 0.9% saline). Under isoflurane anesthesia, mice were then imaged with a Xenogen IVIS 100 fluorescence imager using an excitation of 675 nm and emission of 720 nm at various time points (0 hours (before treatment), 6 hours, 24 hours and 30 hours (after treatment)). Mice were then intraperitoneally injected with a solution of Si700-enamine N-oxide probe 42 (20 mg/kg, 7.93 mM in 0.9% saline) 30 hours post injection. After 16 hours, mice were intraperitoneally injected with a bolus of pimonidazole solution (200 μL, 25.8 mM pimonidazole in 0.9% saline). […]

Structure (SMILES)	labeling profile (hypoxic vs normoxic) [1]	near-infrared fluorescence imaging: accumulation in the tumor [2]
C#CCCCCC(F)/C=C/[N+]([O-])(CC)CC (centres unmarked) [probe 39, (E)-N,N-diethyl-3-fluoronon-1-en-8-yn-1-amine oxide]	hypoxia selectivity	–
C#CCN(CCCCCC(F)/C=C/[N+]([O-])(CC)CC)C(=O)c1ccc(C2=c3cc4c(cc3[Si](C)(C)c3cc5c(cc32)CCN5C)=[N+](C)CC4)c(C)c1 (centres unmarked) [probe 42, Si700-enamine N-oxide]	–	preferential accumulation of enamine N-oxide probe 42 in the tumor

Source: patent US20240208898A1, “ENAMINE N-OXIDES: SYNTHESIS AND APPLICATION TO HYPOXIA-RESPONSIVE PRODRUGS AND IMAGING AGENTS” (DANA-FARBER CANCER INSTITUTE, INC., priority 2021, published 2024)
